Results published in paper PMC7699649 (Communications Biology, 2020).
Non-standard residues stand in square brackets, D forms with d. Residues, ends and D or L forms follow the SMILES beside them.

Legend:
Calu-3 = format: cell-based; conditions: 24 h
Experimental: (§1) HeLa and HEK293 cell lines were purchased from ECACC and cultured in Eagle’s Minimum Essential Media containing glutamine, supplemented with 10% FBS and 1X non-essential amino acids. A549 and Calu-3 cell lines were purchased from ATCC. […] Cytotoxicity was measured by incubating starter cultures of cells for 24 h in a 96 well plate, gently removing the supernatant and replacing it with dilutions of peptides and controls, incubating for a further 24 h and then staining of the cells with the second-generation tetrazolium dye, XTT.

HeLa = format: cell-based; conditions: 24 h
Experimental: as §1

A549 = format: cell-based; conditions: 24 h
Experimental: as §1

human red blood cells = experiment: Haemolysis assay; format: cell-based; conditions: human red blood cells in PBS, 1 h 37 °C, OD550, relative to 0.1% Triton-X-100
Experimental: Haemolysis was tested by incubating titrations of AMPs in PBS with freshly collected human red blood cells for 1 h at 37 °C. Control wells were treated with 0.1% Triton-X-100 to ensure complete lysis, or PBS-only to represent no lysis. Samples were spun down to remove non-lysed cells and the OD550 of the supernatant was measured using a Clariostar plate reader. The percentage of haemolysis was calculated as % haemolysis = (AP − AB)/(AC − AB) × 100, where AP is the absorbance value for a known peptide concentration, AC is the absorbance of the 0.1% Triton-X-100 control, AB is the absorbance of the PBS control. Data presented are averages and standard error from three biological replicate experiments.

EMRSA-15 = experiment: 1H HR-MAS NMR metabolomics of bacterial pellets; format: cell-based, Staphylococcus aureus; conditions: EMRSA-15 in MHB, sub-inhibitory challenge v unchallenged; fold change, 1H HR-MAS NMR of pellets
Experimental: S. aureus EMRSA-15 and P. aeruginosa RP73 were streaked on Mueller Hinton agar plates and RPMI (supplemented with 5% FBS) agar plates and incubated at 37 °C overnight or until single colonies formed. […] Cultures were incubated overnight at 37 °C without shaking and pelleted by centrifugation at 4 °C. The supernatant was removed and filtered separately for spent media analysis, the pellet was briefly washed three times with phosphate buffered saline (PBS). The pellets were frozen in liquid nitrogen and lyophilised overnight in an Alpha 1–2 LD plus freeze dryer (Martin Christ, Germany) and stored at −20 °C until required. Samples were transferred into HR-MAS inserts for use in 4 mm Bruker MAS rotor and resuspended in 30 μl of D2O containing 3-(Trimethylsilyl)propionic-2,2,3,3-D4 acid sodium salt (TMSP-2,2,3,3-D4). The removed supernatant was filtered through 0.2 μm filters and pH adjusted to within 0.3 pH units within the same sample set. The samples were supplemented with 10% D2O containing TMSP-2,2,3,3-D4 and loaded into 5.0 mm NMR tubes.
NMR spectra were collected at 600 MHz for ^1H on a Bruker Avance II spectrometer (Bruker Biospin, Coventry, UK) with a 4 mm HR-MAS probe at 310 K while spinning at 5 kHz. ^1H NMR spectra were acquired using a Carr-Purcell Meiboom-Gill pre-saturation (cpmgpr1d) pulse sequence with a spectrum width of 16.0 ppm and 9615 data points using 64 transients. Free induction decay was multiplied by an exponential function with 0.293 Hz line broadening. 2D ^1H–^1H correlation spectroscopy (COSY) and ^1H–^13C Heteronuclear Single Quantum Correlation (HSQC) experiments were performed on representative datasets using standard Bruker settings.
The spectra were Fourier transformed automatically using standard Bruker commands and manually phased and baseline corrected in Bruker TopSpin 4.0 (Bruker Biospin, Coventry, UK). Spectral pre-processing, cross-validation and multivariate analysis were carried out using the in-house programme developed by Dr Louic Vermeer and MVAPACK, an opensource Octave library for NMR metabolomic data processing and analysis. Pre-processing modifies NMR spectra and reduces the variances and influences which are not of interest and may interfere with data analysis, for example, residual water peak or noise and the TSP reference peak. Initially a principle component analysis was carried out to identify clustering spectra and potential outliers in the data, due to e.g. poor baseline. Data were then subject to probabilistic quotient normalisation before binning and alignment. Orthogonal Projections to Latent Structures Discriminant Analysis analyses were conducted to establish the quality of binary comparisons of the metabolomic data (Supplementary Table 4). […] The Mann–Whitney U test was used to compare means and associated p values were false discovery rate adjusted using the Benjamini-Hochberg method (α = 0.05). Box plots were generated using changes in normalised intensity for each metabolite and significant differences between challenges and controls were determined using a one-way ANOVA. Volcano plots and box plots were generated using in-house software developed for Jupyter Notepad using Python 3.7.0. Metabolites were assigned using the databanks: Chenomx NMR suite software (Chenomx Inc., Canada), Human Metabolome Database, BMRB, E. coli Metabolome Database and AOCS lipid library; and a comparison of chemical shifts to the literature, which was confirmed using 2D NMR spectra. Annotated spectra can be found in the supplementary materials (Supplementary Fig. 15). Metaboanalyst and KEGG were later used to identify key pathways that may be affected by these metabolites.

HEK293 = format: cell-based, human; conditions: 24 h
Experimental: as §1

MCP-1 = experiment: Murine EMRSA-15 lung infection model: BAL cytokine ELISA; format: in vivo, C57Bl6J mice; conditions: vancomycin or D-pleurocidin-KR i.v., 48 h
BAL cells = experiment: Murine EMRSA-15 lung infection model: BAL total and differential cell count; format: in vivo, C57Bl6J mice; conditions: 48 h
Experimental: Using the recently developed method[65], an overnight culture of EMRSA-15 was prepared in tryptic soy broth (TSB). EMRSA-15 was cultured in TSB overnight at 37 °C, adjusted to a starting OD600 of 0.025, and grown for additional 4 h for agar beads preparation. EMRSA-15 was embedded into agar beads by mixing the overnight culture with molten tryptic soy agar, which was then spun into warmed mineral oil. The preparation was cooled and centrifuged at 2700 × g, the remaining oil was eliminated, and the beads were washed in sterile PBS. The CFU content of the beads slurry was subsequently quantified on TSA plates and the beads slurry then diluted to 2 × 10^7 CFU/ml in sterile PBS to deliver a final dose of 1 × 10^6 CFU/mouse. Animal work was performed in accordance with the Animals (Scientific Procedures) Act of 1986 (United Kingdom) and 2012 revisions with local ethical approval of King’s College London. On day 0, male C57Bl6J mice (8–10 weeks, Charles River) were anaesthetised under Isoflurane and 50 µl inoculum of EMRSA-15 embedded in agar beads (10^6 CFU/mouse) was instilled directly into the respiratory tract via oropharyngeal dosing (o.a.). Sham control mice were inoculated with sterile PBS agar beads. […] Body weight was measured daily, and animals monitored at regular intervals for signs of pain and distress. After 48 h of pulmonary infection, animals were terminally euthanized using 25% urethane via intra-peritoneal injection. CFUs were quantified in lung homogenates. Lung homogenates were then centrifuged at 14000 rpm for 30 min at 4 °C and the supernatants were stored at −80 °C for future analysis. For BAL fluid collection and analysis (total and differential cell count), a 22-gauge catheter was inserted into the trachea and BAL was recovered by instillation of 0.5 ml of sterile PBS three times and total cells counts were performed by adding Turks stain in a 1:1 ratio. BAL fluid was then centrifuged, and supernatants were stored at −20 °C. Total levels of TNFα, IL-6, KC and MCP-1 were quantified from BAL fluid collected from all animals and measured by ELISA according to the manufacturer protocol (R&D Systems UK). Concentrations of all mediators were then normalised to total protein content of BAL fluid quantified via bicinchoninic acid total protein assays performed to manufacturers protocols (Thermofisher Scientific). […] Statistical analysis was by one-way ANOVA with Dunnett’s multiple comparisons test.

S. aureus USA300 = conditions: 200 mg/kg vancomycin i.p.; cited from earlier work
KC = experiment: Murine EMRSA-15 lung infection model: BAL cytokine ELISA; format: in vivo, C57Bl6J mice; conditions: 600 mg/kg vancomycin or the two higher D-pleurocidin-KR doses (15, 1.5 mg/kg) i.v., 48 h
[1] = Murine EMRSA-15 lung infection model: body weight; format: in vivo, C57Bl6J mice; conditions: cumulative 15 or 1.5 mg/kg/48 h D-pleurocidin-KR; 600 mg/kg vancomycin; i.v.
TNFα = experiment: Murine EMRSA-15 lung infection model: BAL cytokine ELISA; format: in vivo, C57Bl6J mice; conditions: vancomycin or D-pleurocidin-KR i.v., 48 h
IL-6 = experiment: as above; format: in vivo, C57Bl6J mice; conditions: 600 mg/kg vancomycin or D-pleurocidin-KR (also lowest dose 0.15 mg/kg) i.v., 48 h

Row | Structure (SMILES) | Toxicity Calu-3 (EC50 / IC50) (Calu-3) | Toxicity HeLa (EC50 / IC50) (HeLa) | Toxicity A549 (EC50 / IC50) (A549) | fc 2-aminobutyrate (EMRSA-15) | fc Acetate (EMRSA-15) | fc Acetyl-Phosphocholine (1) (EMRSA-15) | fc Acetyl-Phosphocholine (2) (EMRSA-15) | fc Adenosine (EMRSA-15) | fc Alanine (EMRSA-15) | fc Aspartate (EMRSA-15) | fc Betaine (EMRSA-15) | fc Choline (EMRSA-15) | fc Citrulline (EMRSA-15) | fc Glutamate (EMRSA-15) | fc Glycerol (lipid headgroup) (1) (EMRSA-15) | fc Glycerol (lipid headgroup) (2) (EMRSA-15) | fc Glycerol (lipid headgroup) (3) (EMRSA-15) | fc Isoleucine (EMRSA-15) | fc Lactate (EMRSA-15) | fc Leucine (EMRSA-15) | further results
1 | CC(C)C[C@@H](NC(=O)[C@@H](Cc1ccc(O)cc1)NC(=O)[C@@H](Cc1c[nH]cn1)NC(=O)[C@H](NC(=O)[C@@H](CC(C)C)NC(=O)[C@@H](C)NC(=O)[C@@H](C)NC(=O)[C@@H](CCCCN)NC(=O)CNC(=O)[C@@H](C)NC(=O)[C@@H](Cc1c[nH]cn1)NC(=O)[C@@H](CCCCN)NC(=O)CNC(=O)[C@@H](C)NC(=O)[C@@H](Cc1c[nH]cn1)NC(=O)[C@@H](C)NC(=O)[C@@H](C)NC(=O)[C@@H](CCCCN)NC(=O)[C@@H](CCCCN)NC(=O)[C@@H](Cc1ccccc1)NC(=O)[C@@H](Cc1ccccc1)NC(=O)[C@@H](CO)NC(=O)CNC(=O)[C@@H](Cc1c[nH]c2ccccc12)NC(=O)CN)[C@H](C)O)C(N)=O [D-pleurocidin-VA] (H-G[dW]G[dS][dF][dF][dK][dK][dA][dA][dH][dA]G[dK][dH][dA]G[dK][dA][dA][dL][dT][dH][dY][dL]-NH2; N-terminus assumed) | (>250) µg/ml | (198.2 ± 10.2) µg/ml | (>250) µg/ml | 0.991 | 1.149 | 0.9923 | 1.003 | 1.125 | 0.9478 | 0.8483 | 0.9779 | 1.051 | 0.9363 | 0.896 | 0.9028 | 1.031 | 0.9777 | 1.148 | 1.293 | 1.172 | haemolysis at the highest concentration tested 400 µg/ml (human red blood cells): Neither pleurocidin-VA nor D-pleurocidin-VA induce detectable haemolysis; fc Lipid -CH=CH- (EMRSA-15): 1.134; fc Lipid-CH₃ (EMRSA-15): 1.116; fc Lysine (EMRSA-15): 1.027; fc N-acetyl-x (1) (EMRSA-15): 0.8941; fc N-acetyl-x (2) (EMRSA-15): 1.036; fc N-acetyl-x (3) (EMRSA-15): 0.9489; fc Proline (EMRSA-15): 1.056; fc Succinate (EMRSA-15): 0.8785; fc Unassigned 1.47ppm (EMRSA-15): 0.8868; fc Unassigned 3.4802ppm (EMRSA-15): 0.9293; fc Unassigned 8.55ppm (EMRSA-15): 0.9285; fc Uracil (EMRSA-15): 1.738; fc Valine (EMRSA-15): 1.029; fc ᴅ-alanine (LTA) (EMRSA-15): 1.157; Toxicity HEK293 (EC50 / IC50) (HEK293): (217.3 ± 46.5) µg/ml
2 | CC(C)C[C@@H](NC(=O)[C@@H](Cc1ccc(O)cc1)NC(=O)[C@@H](Cc1c[nH]cn1)NC(=O)[C@H](NC(=O)[C@@H](CC(C)C)NC(=O)[C@@H](C)NC(=O)[C@@H](C)NC(=O)[C@@H](CCCCN)NC(=O)CNC(=O)[C@H](NC(=O)[C@@H](Cc1c[nH]cn1)NC(=O)[C@@H](CCCCN)NC(=O)CNC(=O)[C@H](NC(=O)[C@@H](Cc1c[nH]cn1)NC(=O)[C@@H](C)NC(=O)[C@@H](C)NC(=O)[C@@H](CCCCN)NC(=O)[C@@H](CCCCN)NC(=O)[C@@H](Cc1ccccc1)NC(=O)[C@@H](Cc1ccccc1)NC(=O)[C@@H](CO)NC(=O)CNC(=O)[C@@H](Cc1c[nH]c2ccccc12)NC(=O)CN)C(C)C)C(C)C)[C@H](C)O)C(N)=O [D-pleurocidin] (H-G[dW]G[dS][dF][dF][dK][dK][dA][dA][dH][dV]G[dK][dH][dV]G[dK][dA][dA][dL][dT][dH][dY][dL]-NH2; N-terminus assumed) | (41.9 ± 1.8) µg/ml | (47.1 ± 2.1) µg/ml | (79.3 ± 7.2) µg/ml | 1.089 | 7.742 | 0.8504 | 0.9675 | 0.737 | 0.9988 | 0.9699 | 1.128 | 0.8079 | 0.7893 | 0.9017 | 1.108 | 0.9648 | 0.9439 | 0.8635 | 0.8326 | 0.8297 | concentration at which 10% haemolysis is achieved (human red blood cells; three biological replicates): 240 µg/mL; fc Lipid -CH=CH- (EMRSA-15): 1.03; fc Lipid-CH₃ (EMRSA-15): 0.9623; fc Lysine (EMRSA-15): 0.8706; fc N-acetyl-x (1) (EMRSA-15): 1.103; fc N-acetyl-x (2) (EMRSA-15): 1.06; fc N-acetyl-x (3) (EMRSA-15): 0.8909; fc Proline (EMRSA-15): 0.991; fc Succinate (EMRSA-15): 0.6241; fc Unassigned 1.47ppm (EMRSA-15): 0.9642; fc Unassigned 3.4802ppm (EMRSA-15): 1.011; fc Unassigned 8.55ppm (EMRSA-15): 5.383; fc Uracil (EMRSA-15): 0.4342; fc Valine (EMRSA-15): 0.8108; fc ᴅ-alanine (LTA) (EMRSA-15): 1.199; Toxicity HEK293 (EC50 / IC50) (HEK293): (61.4 ± 3.9) µg/ml
3 | CN[C@H](CC(C)C)C(=O)N[C@H]1C(=O)N[C@@H](CC(N)=O)C(=O)N[C@H]2C(=O)N[C@H]3C(=O)N[C@H](C(=O)N[C@H](C(=O)O)c4cc(O)cc(O)c4-c4cc3ccc4O)[C@H](O)c3ccc(c(Cl)c3)Oc3cc2cc(c3O[C@@H]2O[C@H](CO)[C@@H](O)[C@H](O)[C@H]2O[C@H]2C[C@](C)(N)[C@H](O)[C@H](C)O2)Oc2ccc(cc2Cl)[C@H]1O [vancomycin, reference compound] | – | – | – | – | – | – | – | – | – | – | – | – | – | – | – | – | – | – | – | – | levels of MCP-1 in BAL (MCP-1): No effects; neutrophil recruitment (BAL) (BAL cells; 600 mg/kg vancomycin or D-pleurocidin-KR (also lowest dose 0.15 mg/kg) i.v.): reduced; macrophage numbers in BAL (BAL cells; vancomycin or D-pleurocidin-KR i.v.): No effects; reduction in S. aureus USA300 CFU (S. aureus USA300): comparable reduction; KC levels in BAL (KC): fall to that of the uninfected group; weight loss over the 48-h infection period [1]: mitigates this weight loss; levels of TNFα in BAL (TNFα): No effects; IL-6 in BAL (IL-6): reduced
